Consider 29 compounds from US10351575B2, “Bicyclic urea, thiourea, guanidine and cyanoguanidine compounds useful for the treatment of pain” (Array BioPharma Inc., priority 2012, dated 2019).

Each structure is given as a SMILES string.

Sequence of His-tagged recombinant human TrkA (P04629 440-796): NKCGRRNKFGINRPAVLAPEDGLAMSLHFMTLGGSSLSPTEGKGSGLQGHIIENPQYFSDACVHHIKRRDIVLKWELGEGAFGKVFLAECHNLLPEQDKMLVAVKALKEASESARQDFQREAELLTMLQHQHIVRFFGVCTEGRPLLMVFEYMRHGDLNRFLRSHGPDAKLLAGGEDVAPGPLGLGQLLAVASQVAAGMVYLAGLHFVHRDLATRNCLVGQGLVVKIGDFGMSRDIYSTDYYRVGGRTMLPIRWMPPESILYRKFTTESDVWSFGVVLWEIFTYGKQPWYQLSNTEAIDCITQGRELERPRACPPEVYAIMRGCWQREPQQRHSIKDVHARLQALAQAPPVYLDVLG

The assay addresses His-tagged recombinant human TrkA (Homo sapiens (Human), UniProt P04629). Put plainly: TrkA LanthaScreen Eu Kinase Binding Assay. The following applies: averaged IC50; TR-FRET binding, 60 min, 22° C.; read-out: TrkA Enzyme IC50. As for the experimental part:
TrkA binding activity was determined in a TrkA LanthaScreen™ Eu Kinase Binding Assay. 5 nM His-tagged recombinant human TrkA (6HIS tagged cytoplasmic domain from Invitrogen, Catalog No. PV3144) was incubated with 4 nM Alexa-Fluor® Tracer 236 (Invitrogen Cat. No. PV5592), 2 nM biotinylated anti-His (Invitrogen Cat. No. PV6090), and 2 nM europium-labeled Streptavidin (Invitrogen Cat. No. PV5899), in buffer (25 mM MOPS, pH 7.5, 5 mM MgCl2, 0.005% Triton X-100). Three fold serial dilutions of compounds of the invention in DMSO were added to a final percentage of 2% DMSO. After 60-minute incubation at 22° C., the reaction was measured using the EnVision mutlimode plate reader (PerkinElmer) via TR-FRET dual wavelength detection at […]. The percent of control was calculated using a ratiometric emission factor. The IC50 values were determined by fitting a four parameter model to the percent of control data.
For orientation: Time-resolved FRET reads energy transfer from a long-lived donor to a nearby acceptor.
For orientation: IC50 means the concentration needed to halve the response being measured. Take `COCCN1Cc2ccccc2C(NC(=O)Nc2c3c(nn2-c2ccccc2)CCC3)C1` (centres unmarked) [Example 23, 1-(2-(2-methoxyethyl)-1,2,3,4-tetrahydroisoquinolin-4-yl)-3-(2-phenyl-2,4,5,6-tetrahydrocyclopenta[c]pyrazol-3-yl)urea]: the IC50 was 100 to 1000 nM.

Turning to `CC(=O)N1Cc2ccccc2C(NC(=O)Nc2c3c(nn2-c2ccccc2)CCC3)C1` (centres unmarked) [Example 24, 1-(2-acetyl-1,2,3,4-tetrahydroisoquinolin-4-yl)-3-(2-phenyl-2,4,5,6-tetrahydrocyclopenta[c]pyrazol-3-yl)urea], the IC50 is 100 to 1000 nM.

Take `Cc1c(-c2cnn(C)c2)nn(-c2ccccc2)c1NC(=O)NC1CN(CC(F)(F)F)Cc2ccccc21` (centres unmarked) [Example 25, 1-(1′,4-dimethyl-1-phenyl-1H,1′H-3,4′-bipyrazol-5-yl)-3-(2-(2,2,2-trifluoroethyl)-1,2,3,4-tetrahydroisoquinolin-4-yl)urea]: the IC50 was less than 100 nM.

Turning to `Cc1c(-c2cn(C)cn2)nn(-c2ccccc2)c1NC(=O)NC1CN(CC(F)(F)F)Cc2ccccc21` (centres unmarked) [Example 27, 1-(4-methyl-3-(1-methyl-1H-imidazol-4-yl)-1-phenyl-1H-pyrazol-5-yl)-3-(2-(2,2,2-trifluoroethyl)-1,2,3,4-tetrahydroisoquinolin-4-yl)urea], the IC50 was less than 100 nM.

`O=C(Nc1c2c(nn1-c1ccccc1)CCC2)NC1CN(CC(F)(F)F)Cc2ccccc21` (centres unmarked) [Example 28, 1-(2-phenyl-2,4,5,6-tetrahydrocyclopenta[c]pyrazol-3-yl)-3-(2-(2,2,2-trifluoroethyl)-1,2,3,4-tetrahydroisoquinolin-4-yl)urea]: the IC50 is less than 100 nM.

Take `CNC(=O)c1nn(-c2ccccc2)c(NC(=O)NC2CN(CC(F)(F)F)Cc3ccccc32)c1C` (centres unmarked) [Example 29, N,4-dimethyl-1-phenyl-5-(3-(2-(2,2,2-trifluoroethyl)-1,2,3,4-tetrahydroisoquinolin-4-yl)ureido)-1H-pyrazole-3-carboxamide]: the IC50 is less than 100 nM.

For the compound `Cc1c(NC(=O)NC2CN(CC(F)(F)F)Cc3ccccc32)n(-c2ccccc2)[nH]c1=O` (centres unmarked) [Example 30, 1-(4-methyl-5-oxo-2-phenyl-2,5-dihydro-1H-pyrazol-3-yl)-3-(2-(2,2,2-trifluoroethyl)-1,2,3,4-tetrahydroisoquinolin-4-yl)urea], the IC50 is less than 100 nM.

Regarding `Cc1nn(-c2ccccc2)c(NC(=O)NC2CN(CC(F)(F)F)Cc3ccccc32)c1C(N)=O` (centres unmarked) [Example 31, 3-methyl-1-phenyl-5-(3-(2-(2,2,2-trifluoroethyl)-1,2,3,4-tetrahydroisoquinolin-4-yl)ureido)-1H-pyrazole-4-carboxamide], the IC50 was less than 100 nM.

As to `Cc1c(-c2cnn(C)c2)nn(-c2ccccc2)c1NC(=O)NC1CC(C2CC2)Oc2ccc(Br)cc21` (centres unmarked) [Example 33, 1-(6-bromo-2-cyclopropylchroman-4-yl)-3-(1′,4-dimethyl-1-phenyl-1H,1′H-[3,4′-bipyrazo]-5-yl)urea], the IC50 is less than 100 nM.

As for `Cc1c(-c2cnn(C)c2)nn(-c2ccccc2)c1NC(=O)NC1CC2(CCC2)Oc2ccc(Br)cc21` (centres unmarked) [Example 34, 1-(6-bromospiro[chroman-2,1′-cyclobutan]-4-yl)-3-(1′,4-dimethyl-1-phenyl-1H,1′H-[3,4′-bipyrazol]-5-yl)urea], the IC50 is less than 100 nM.

For the compound `COCc1ccc2c(c1)C(NC(=O)Nc1c(C)c(-c3cnn(C)c3)nn1-c1ccccc1)CC1(CCC1)O2` (centres unmarked) [Example 35A, 1-(1′,4-dimethyl-1-phenyl-1H,1′H-[3,4′-bipyrazol]-5-yl)-3-(6-(methoxymethyl)spiro[chroman-2,1′-cyclobutan]-4-yl)urea], the half-maximal inhibitory concentration (IC50) is less than 100 nM.

Turning to `Cc1c(-c2cnn(C)c2)nn(-c2ccccc2)c1NC(=O)NC1CC2(CCC2)Oc2ccccc21` (centres unmarked) [Example 35B, 1-(1′,4-dimethyl-1-phenyl-1H,1′H-[3,4′-bipyrazol]-5-yl)-3-(spiro[chroman-2,1′-cyclobutan]-4-yl)urea], the IC50 lay in the range of 100 to 1000 nM.

Take `Cc1c(-c2cnn(C)c2)nn(-c2ccccc2)c1NC(=O)NC1CCC(=O)c2ccccc21` (centres unmarked) [Example 36, 1-(1′,4-dimethyl-1-phenyl-1H,1′H-[3,4′-bipyrazol]-5-yl)-3-(4-oxo-1,2,3,4-tetrahydronaphthalen-1-yl)urea]: the IC50 lay in the range of 100 to 1000 nM.

For `Cc1c(-c2cnn(C)c2)nn(-c2ccccc2)c1NC(=O)NC1CCC(C)(O)c2ccccc21` (centres unmarked) [Example 37, 1-(1′,4-dimethyl-1-phenyl-1H,1′H-[3,4′-bipyrazol]-5-yl)-3-(4-hydroxy-4-methyl-1,2,3,4-tetrahydronaphthalen-1-yl)urea], the IC50 was 100 to 1000 nM.

For the compound `Cc1c(-c2cnn(C)c2)nn(-c2ccccc2)c1NC(=O)Nc1cn(CC(F)(F)F)c(=O)c2ccccc12` [Example 38, 1-(1′,4-dimethyl-1-phenyl-1H,1′H-[3,4′-bipyrazol]-5-yl)-3-(1-oxo-2-(2,2,2-trifluoroethyl)-1,2-dihydroisoquinolin-4-yl)urea], the IC50 is 100 to 1000 nM.

As to `COc1nn(-c2ccccc2)c(NC(=O)NC2CCN(C)c3ccccc32)c1C` (centres unmarked) [Example 39, 1-(3-methoxy-4-methyl-1-phenyl-1H-pyrazol-5-yl)-3-(1-methyl-1,2,3,4-tetrahydroquinolin-4-yl)urea], the IC50 was less than 100 nM.

For the compound `Cc1c(-c2cnn(C)c2)nn(-c2ccccc2)c1NC(=O)NC1CCN(C)c2ccccc21` (centres unmarked) [Example 40, 1-(1′,4-dimethyl-1-phenyl-1H,1′H-[3,4′-bipyrazol]-5-yl)-3-(1-methyl-1,2,3,4-tetrahydroquinolin-4-yl)urea], the IC50 lay in the range of 100 to 1000 nM.

For the compound `Cc1c(-c2ccc(=O)n(C)c2)nn(-c2ccccc2)c1NC(=O)NC1CCN(C)c2ccccc21` (centres unmarked) [Example 41, 1-(1-methyl-1,2,3,4-tetrahydroquinolin-4-yl)-3-(4-methyl-3-(1-methyl-6-oxo-1,6-dihydropyridin-3-yl)-1-phenyl-1H-pyrazol-5-yl)urea], the IC50 is less than 100 nM.

For the compound `CCN1CCC(NC(=O)Nc2c(C)c(-c3ccc(=O)n(C)c3)nn2-c2ccccc2)c2ccccc21` (centres unmarked) [Example 42, 1-(1-ethyl-1,2,3,4-tetrahydroquinolin-4-yl)-3-(4-methyl-3-(1-methyl-6-oxo-1,6-dihydropyridin-3-yl)-1-phenyl-1H-pyrazol-5-yl)urea], the IC50 is less than 100 nM.

With `Cc1c(-c2ccc(=O)n(C)c2)nn(-c2ccccc2)c1NC(=O)NC1CCN(C)c2c(F)cccc21` (centres unmarked) [Example 43, 1-(8-fluoro-1-methyl-1,2,3,4-tetrahydroquinolin-4-yl)-3-(4-methyl-3-(1-methyl-6-oxo-1,6-dihydropyridin-3-yl)-1-phenyl-1H-pyrazol-5-yl)urea], the IC50 was 100 to 1000 nM.

Regarding `Cc1c(-c2ccc(=O)n(C)c2)nn(-c2ccccc2)c1NC(=O)NC1CCN(C)c2c(F)cc(Cl)cc21` (centres unmarked) [Example 44, 1-(6-chloro-8-fluoro-1-methyl-1,2,3,4-tetrahydroquinolin-4-yl)-3-(4-methyl-3-(1-methyl-6-oxo-1,6-dihydropyridin-3-yl)-1-phenyl-1H-pyrazol-5-yl)urea], the IC50 is less than 100 nM.

For `CCN1CCC(NC(=O)Nc2c(C)c(-c3ccc(=O)n(C)c3)nn2-c2ccccc2)c2cc(Cl)ccc21` (centres unmarked) [Example 45, 1-(6-chloro-1-ethyl-1,2,3,4-tetrahydroquinolin-4-yl)-3-(4-methyl-3-(1-methyl-6-oxo-1,6-dihydropyridin-3-yl)-1-phenyl-1H-pyrazol-5-yl)urea], the IC50 was less than 100 nM.

`CCN1CCC(NC(=O)Nc2c(C)c(OC)nn2-c2ccccc2)c2cc(Cl)ccc21` (centres unmarked) [Example 46, 1-(6-chloro-1-ethyl-1,2,3,4-tetrahydroquinolin-4-yl)-3-(3-methoxy-4-methyl-1-phenyl-1H-pyrazol-5-yl)urea]: the IC50 was less than 100 nM.

In the case of `CO[C@H]1Cc2ccccc2[C@@H]1NC(=O)Nc1c2c(nn1-c1ccccc1)CCC2` [Example 47, 1-((1S,2S)-2-methoxy-2,3-dihydro-1H-inden-1-yl)-3-(2-phenyl-2,4,5,6-tetrahydrocyclopenta[c]pyrazol-3-yl)urea], the half-inhibitory concentration (IC50) lay within 100 to 1000 nM.

In the case of `COCCO[C@H]1Cc2ccccc2[C@@H]1NC(=O)Nc1c2c(nn1-c1ccccc1)CCC2` [Example 48, 1-((1S,2S)-2-(2-methoxyethoxy)-2,3-dihydro-1H-inden-1-yl)-3-(2-phenyl-2,4,5,6-tetrahydrocyclopenta[c]pyrazol-3-yl)urea], the IC50 lay in the range of 100 to 1000 nM.

Take `CCOc1nn(-c2ccccc2)c(NC(=O)N[C@H]2c3ccccc3C[C@@H]2OCCOC)c1C` [Example 49, 1-(3-ethoxy-4-methyl-1-phenyl-1H-pyrazol-5-yl)-3-((1S,2S)-2-(2-methoxyethoxy)-2,3-dihydro-1H-inden-1-yl)urea]: the IC50 lay in the range of 100 to 1000 nM.

As for `COCCO[C@@H]1Cc2ccccc2[C@H]1NC(=O)Nc1c2c(nn1-c1ccccc1)CCC2` [Example 50, 1-((1R,2R)-2-(2-methoxyethoxy)-2,3-dihydro-1H-inden-1-yl)-3-(2-phenyl-2,4,5,6-tetrahydrocyclopenta[c]pyrazol-3-yl)urea], the IC50 fell in the range of 100 to 1000 nM.

In the case of `COCCO[C@H]1Cc2ccccc2[C@@H]1NC(=O)Nc1c(C)c(-c2cnn(C)c2)nn1-c1ccccc1` [Example 51, 1-(1′,4-dimethyl-1-phenyl-1H,1′H-[3,4′-bipyrazol]-5-yl)-3-((1S,2S)-2-(2-methoxyethoxy)-2,3-dihydro-1H-inden-1-yl)urea], the IC50 lay within 100 to 1000 nM.

For `COCCO[C@H]1Cc2ccccc2[C@@H]1NC(=O)Nc1c(Br)c(C)nn1-c1ccccc1` [Example 52, 1-(4-bromo-3-methyl-1-phenyl-1H-pyrazol-5-yl)-3-((1S,2S)-2-(2-methoxyethoxy)-2,3-dihydro-1H-inden-1-yl)urea], the IC50 lay in the range of 100 to 1000 nM.
